Data reported in US20240158446A1, “CYCLIC COMPOUND HAVING SELECTIVE INHIBITORY ACTION ON KRAS OVER HRAS AND NRAS” (CHUGAI SEIYAKU KABUSHIKI KAISHA, priority 2021, published 2024).
Like-named read-outs stand apart in the source and are kept apart here. *1 amine or outer side, *2 acyl side, *3 side chain or, on linkers, in order; H or OH if unused. Where a SMILES comes first, the peptide text is derived from it. Bridges are numbered along the chain shown (N, C = ends). [ ]: non-standard residue; d: D form. The star is where a group is joined. hPhe(3,5-F2-4-CF3) = N[C@@H](CCc1cc(F)c(C(F)(F)F)c(F)c1)C(=O)O; hPhe(3-Cl-4-CF3) = N[C@@H](CCc1ccc(C(F)(F)F)c(Cl)c1)C(=O)O; NPrPhe(4-CF3) = CCCN[C@@H](Cc1ccc(C(F)(F)F)cc1)C(=O)O; Morpholine(3S-CO) = O=C(O)[C@@H]1COCCN1; NMeGly(cPent) = CN[C@H](C(=O)O)C1CCCC1; Pro(4,4-Me2) = CC1(C)CN[C@H](C(=O)O)C1; X11 = CCC[C@](C)(N[*:1])C(=O)[*:2]; NMeD = CN[C@@H](CC(=O)O)C(=O)O; NMeL = CN[C@@H](CC(C)C)C(=O)O; Morpholide = C1CN(*)CCO1; Ac5c = NC1(C(=O)O)CCCC1; NEtG = CCNCC(=O)O; Sar = CNCC(=O)O

Legend:
[1] = target: GDP-bound KRAS wild-type protein (Homo sapiens, UniProt P01116); experiment: Binding to KRAS by surface plasmon resonance (SPR), Single Cycle Kinetics; conditions: GDP-bound KRAS wild-type protein, read-out: KRAS KD
Chain of GDP-bound KRAS wild-type protein (P01116 whole entry): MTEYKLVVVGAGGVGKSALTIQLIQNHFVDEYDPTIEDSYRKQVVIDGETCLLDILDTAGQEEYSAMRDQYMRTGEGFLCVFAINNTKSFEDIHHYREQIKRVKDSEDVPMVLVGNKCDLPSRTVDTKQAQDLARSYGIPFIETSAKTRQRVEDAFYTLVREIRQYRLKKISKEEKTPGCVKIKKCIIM

[2] = target: GDP-bound HRAS wild-type protein (Homo sapiens, UniProt P01112); experiment: Binding to HRAS by surface plasmon resonance (SPR), Single Cycle Kinetics; conditions: SPR, GDP-bound HRAS wild-type protein vs GDP-bound KRAS wild-type protein
Chain of GDP-bound HRAS wild-type protein (P01112 whole entry): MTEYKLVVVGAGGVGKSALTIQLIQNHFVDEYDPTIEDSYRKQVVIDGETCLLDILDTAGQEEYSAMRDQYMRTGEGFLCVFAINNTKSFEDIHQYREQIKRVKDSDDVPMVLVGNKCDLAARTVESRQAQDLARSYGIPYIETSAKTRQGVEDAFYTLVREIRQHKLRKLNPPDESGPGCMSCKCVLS

[3] = target: GDP-bound NRAS wild-type protein (Homo sapiens, UniProt P01111); experiment: Binding to NRAS by surface plasmon resonance (SPR), Single Cycle Kinetics; conditions: SPR, GDP-bound NRAS wild-type protein vs GDP-bound KRAS wild-type protein
Chain of GDP-bound NRAS wild-type protein (P01111 whole entry): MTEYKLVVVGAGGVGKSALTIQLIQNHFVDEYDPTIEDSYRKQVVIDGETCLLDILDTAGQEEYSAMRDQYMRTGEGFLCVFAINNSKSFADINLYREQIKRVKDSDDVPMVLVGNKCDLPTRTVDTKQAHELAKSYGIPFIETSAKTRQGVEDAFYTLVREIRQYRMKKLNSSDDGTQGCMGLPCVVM

[4] = SPR, Single Cycle Kinetics, 1:1 binding model
[5] = SPR Single Cycle Kinetics, 1:1 binding model

Row | Kd [1, 5] [pM] | SMILES | HRAS/KRAS (ratio of KD value for HRAS to KD value for KRAS) [2] | NRAS/KRAS (ratio of KD value for NRAS to KD value for KRAS) [3] | HRAS/KRAS (ratio of KD value with respect to HRAS to KD value with respect to KRAS) [2] | NRAS/KRAS (ratio of KD value with respect to NRAS to KD value with respect to KRAS) [3] | also measured
1 | – | CCO[C@@H]1C[C@H]2C(=O)NC3(CCC3)C(=O)N(C)[C@@H](C3CCCC3)C(=O)N(C)[C@H](C(=O)N(CC)CC)CC(=O)N(C)[C@@H](CC)C(=O)N[C@@H]([C@@H](C)CC)C(=O)N(C)CC(=O)N(C)[C@H]3C/C=C\CCN(C3=O)[C@@H](Cc3ccc(C(F)(F)F)cc3)C(=O)N(C)CC(=O)N[C@@H](CCc3cc(F)c(C(F)(F)F)c(F)c3)C(=O)N2C1 [PP1305, (2S,8S,12R,14S,20S,23S,27S,30S,36S,38Z)-20-cyclopentyl-8-[2-[3,5-difluoro-4-(trifluoromethyl)phenyl]ethyl]-12-ethoxy-N,N,27-triethyl-4,19,22,26,32,35-hexamethyl-30-[(1S)-1-methylpropyl]-3,6,9,15,18,21,25,28,31,34,42-undecaoxo-2-[[4-(trifluoromethyl)phenyl]methyl]spiro[1,4,7,10,16,19,22,26,29,32,35-undecazatricyclo[34.5.1.0^10,14]dotetracont-38-ene-17,1′-cyclobutane]-23-carboxamide] | – | – | – | – | Kd [1, 4]: 120 pM; HRAS/KRAS (ratio of KD value for HRAS to KD value for KRAS) ([2]; KD ratio class): A (a compound having 10 or more and less than 20 is denoted as A); NRAS/KRAS (ratio of KD value for NRAS to KD value for KRAS) ([3]; KD ratio class): AA (a compound having 20 or more is denoted as AA)
2 | 280 | CCCN1C(=O)CN(C)C(=O)CN(C)C(=O)[C@H]([C@@H](C)CC)NC(=O)[C@H](CC(C)C)N(C)C(=O)C[C@@H](C(=O)N2CCOCC2)N(C)C(=O)[C@H](C2CCCC2)N(C)C(=O)C2(CCCC2)NC(=O)[C@@H]2COCCN2C(=O)[C@H](CCc2ccc(C(F)(F)F)c(Cl)c2)NC(=O)CN(C)C(=O)[C@@H]1Cc1ccc(C(F)(F)F)cc1 [PP0265] ([NMeL]I[Sar][Sar][NPrPhe(4-CF3)][Sar][hPhe(3-Cl-4-CF3)][Morpholine(3S-CO)][Ac5c][NMeGly(cPent)][NMeD]-Morpholide; lactam N-11) | C (A compound having a KD ratio of 0.1 or more and less than 3 is denoted as C) | B (a compound having 3 or more and less than 10 is denoted as B) | – | – | –
3 | – | CC[C@H](C)[C@@H]1NC(=O)[C@H](CC2CC2)N(C)C(=O)C[C@@H](C(=O)N(C)C)N(C)C(=O)[C@H](C2CCCC2)N(C)C(=O)C2(CCCC2)NC(=O)[C@@H]2C[C@H](C)CN2C(=O)[C@H](CCc2cc(F)c(C(F)(F)F)c(F)c2)NC(=O)CN(C)C(=O)[C@H](Cc2ccc(C(F)(F)F)cc2)N2CC/C=C\C[C@@H](C2=O)N(C)C(=O)CN(C)C1=O [PP1511, (2S,8S,12S,14S,20S,23S,27S,30S,36S,38Z)-20-cyclopentyl-27-(cyclopropylmethyl)-8-[2-[3,5-difluoro-4-(trifluoromethyl)phenyl]ethyl]-N,N,4,12,19,22,26,32,35-nonamethyl-30-[(1S)-1-methylpropyl]-3,6,9,15,18,21,25,28,31,34,42-undecaoxo-2-[[4-(trifluoromethyl)phenyl]methyl]spiro[1,4,7,10,16,19,22,26,29,32,35-undecazatricyclo[34.5.1.0^10,14]dotetracont-38-ene-17,1′-cyclopentane]-23-carboxamide] | – | – | – | – | Kd [1, 4]: 99 pM; HRAS/KRAS (ratio of KD value for HRAS to KD value for KRAS) ([2]; KD ratio class): A (a compound having 10 or more and less than 20 is denoted as A); NRAS/KRAS (ratio of KD value for NRAS to KD value for KRAS) ([3]; KD ratio class): AA (a compound having 20 or more is denoted as AA)
4 | 1900 | CC[C@H](C)[C@@H]1NC(=O)[C@H](CC)N(C)C(=O)C[C@@H](C(=O)N(C)C)N(C)C(=O)[C@H](C2CCCC2)N(C)C(=O)C2(CCC2)NC(=O)[C@@H]2CCCCN2C(=O)[C@H](CCc2cc(F)c(C(F)(F)F)c(F)c2)NC(=O)CN(C)C(=O)[C@H](Cc2ccc(C(F)(F)F)cc2)N2CCCCC[C@@H](C2=O)N(C)C(=O)CN(C)C1=O [PP0655] | – | – | B (a compound having 3 or more and less than 10 is denoted as B) | B (a compound having 3 or more and less than 10 is denoted as B) | –
5 | 380 | CCCN1C(=O)CN(C)C(=O)CN(CC)C(=O)[C@H]([C@@H](C)CC)NC(=O)[C@H](CC(C)C)N(C)C(=O)C[C@@H](C(=O)N2CCOCC2)N(C)C(=O)[C@H](C2CCCC2)N(C)C(=O)C2(CCCC2)NC(=O)[C@@H]2CC(C)(C)CN2C(=O)[C@H](CCc2ccc(C(F)(F)F)c(Cl)c2)NC(=O)CN(C)C(=O)[C@@H]1Cc1ccc(C(F)(F)F)cc1 [PP0450] ([NMeL]I[NEtG][Sar][NPrPhe(4-CF3)][Sar][hPhe(3-Cl-4-CF3)][Pro(4,4-Me2)][Ac5c][NMeGly(cPent)][NMeD]-Morpholide; lactam N-11) | – | – | C (A compound having a KD ratio of 0.1 or more and less than 3 is denoted as C) | B (a compound having 3 or more and less than 10 is denoted as B) | –
6 | – | CCO[C@@H]1C[C@H]2C(=O)NC3(CCC3)C(=O)N(C)[C@@H](C3CCCC3)C(=O)N(C)[C@H](C(=O)N3CCOCC3)CC(=O)N(C)[C@@H](CC(C)C)C(=O)N[C@@H]([C@@H](C)CC)C(=O)N3CC[C@H]3C(=O)N(C)[C@H]3CC(C)=CCN(C3=O)[C@@H](Cc3ccc(C(F)(F)F)cc3)C(=O)N(C)CC(=O)N[C@@H](CCc3cc(F)c(C(F)(F)F)c(F)c3)C(=O)N2C1 [PP1040] | C (A compound having a KD ratio of 0.1 or more and less than 3 is denoted as C) | C (A compound having a KD ratio of 0.1 or more and less than 3 is denoted as C) | – | – | Kd ([1]; SPR, Single Cycle Kinetics): 1200 pM
7 | 170 | CC[C@H](C)[C@@H]1NC(=O)[C@H](CC(C)C)N(C)C(=O)C[C@@H](C(=O)N2CCOCC2)N(CC)C(=O)[C@H](C2CCCC2)N(C)C(=O)C2(CCCC2)NC(=O)[C@@H]2CCCN2C(=O)[C@H](CCc2cc(F)c(C(F)(F)F)c(F)c2)NC(=O)CN(C)C(=O)[C@H](Cc2ccc(C(F)(F)F)cc2)N2CCCC[C@@H](C2=O)N(C)C(=O)CN(C)C1=O [PP0539] | – | – | B (a compound having 3 or more and less than 10 is denoted as B) | B (a compound having 3 or more and less than 10 is denoted as B) | –
8 | – | CCC[C@H]1C(=O)N[C@@H]([C@@H](C)CC)C(=O)N(C)CC(=O)N(C)[C@H]2C/C=C\CCN(C2=O)[C@@H](Cc2ccc(C(F)(F)F)cc2)C(=O)N(C)CC(=O)N[C@@H](CCc2ccc(C(F)(F)F)c(Cl)c2)C(=O)N2C[C@H](OCC)C[C@H]2C(=O)NC2(CC(C)(C)C2)C(=O)N(C)[C@@H](CC(F)(F)F)C(=O)N(C)[C@H](C(=O)N(C)C)CC(=O)N1C [PP2975] | A (a compound having 10 or more and less than 20 is denoted as A) | A (a compound having 10 or more and less than 20 is denoted as A) | – | – | Kd ([1]; SPR, Single Cycle Kinetics): 960 pM
9 | 550 | CCCN1C(=O)CN(C)C(=O)CN(C)C(=O)[C@H]([C@@H](C)CC)NC(=O)[C@H](CC(C)C)N(C)C(=O)C[C@@H](C(=O)N(C)C)N(C)C(=O)[C@H](C2CCCC2)N(C)C(=O)[C@](C)(CCC)NC(=O)[C@@H]2CCCN2C(=O)[C@H](CCc2cc(F)c(C(F)(F)F)c(F)c2)NC(=O)CN(C)C(=O)[C@@H]1Cc1ccc(C(F)(F)F)cc1 [PP0737] ([NMeL]I[Sar][Sar][NPrPhe(4-CF3)][Sar][hPhe(3,5-F2-4-CF3)]P[X11][NMeGly(cPent)][NMeD]-NMe2; lactam N-11) | – | – | C (A compound having a KD ratio of 0.1 or more and less than 3 is denoted as C) | B (a compound having 3 or more and less than 10 is denoted as B) | –
